From US8314092B2, “Substituted [(5H-pyrrolo[2,1-c][1,4]benzodiazepin-11-yl)piperazin-1-yl]-2,2-dimethylpropanoic acid compounds as dual activity H1 inverse agonists/5-HT2A antagonists” (Eli Lilly and Company, priority 2011, dated 2012)
Counter-ions that a name gives are not always drawn.

What was measured:
[1] = biological target: Dopamine D1 (Homo sapiens, UniProt P21728); assay: Dopamine D1 binding
Source text: (§1) Further, the compounds of the invention may be tested in binding assays and functional activity assays by well known methods for other physiologically important receptors such as, but not limited to, the hERG channel, other serotonin receptors (specifically 5-HT1A, 5-HT1B, 5-HT1D, 5-HT1E, 5-HT1F receptors, lack of agonist activity at 5-HT2B receptors, 5-HT2C, 5-HT4, 5-HTS, 5-HT6, and 5-HT7 receptors), muscarinic receptors, dopaminergic receptors (specifically D1, D2, and D3), GABAA receptors, adrenergic receptors and monoamine transporters. Certain exemplified compounds are tested at these receptors and are shown to lack significant activity.

[2] = biological target: Dopamine D2 (Homo sapiens, UniProt P14416); assay: Dopamine D2 binding
Source text: as §1

[3] = system: native GABAA receptors; assay: GABAA antagonism using native receptors in primary neuronal cultures (FLIPR calcium flux); assay type: cell-based, rat; conditions: against 10 μM GABA
Experimental: Activity of compounds on native GABAA receptors is evaluated by monitoring calcium fluxes using a 96 well format FLIPR® system (Fluorometric Imaging Plate Reader (FLIPR®, Molecular Devices). Briefly, cortical embryonic neurons are dissociated from E18 rat embryos and plated at optimum density into black-walled, transparent bottom poly-D-lysine coated 96-well FLIPR® plates. After loading the cells with a calcium sensitive dye (Fluo-4-AM, Molecular Devices), the cells are bathed in a solution containing low chloride (chloride replaced by gluconate). Under these conditions activation of GABAA receptors causes an efflux of chloride ions (in the direction of the chemical gradient), which results in membrane depolarization and consequently activation of voltage gated calcium channels (VGCCs). Calcium influx through VGCCs is recorded and analysed offline using the FLIPR® system. For a pharmacological validation of the assay, concentration response curves (CRC) are recorded for the standard agonist (GABA) and standard antagonist (Gabazine). […]
The antagonist effects of compounds are quantified using 10-point dose response curves by comparing the peak fluorescent responses to the agonist GABA in the presence and absence of compound. […] Antagonist effects are calculated as a percent of the assay window. […]

[4] = biological target: Norepinephrine Transport (Homo sapiens, UniProt P23975); assay: Norepinephrine transporter assay; assay type: binding; conditions: dihydrochloride
Source text: as §1

[5] = biological target: 5-HT5 (Homo sapiens, UniProt P47898); assay: 5-HT5 binding
Source text: as §1

[6] = biological target: 5-HT1E (Homo sapiens, UniProt P28566); assay: 5-HT1E binding
Source text: as §1

[7] = biological target: 5-HT7 (Homo sapiens, UniProt P34969); assay: 5-HT7 binding
Source text: as §1

[8] = biological target: human recombinant H1 receptor (Homo sapiens, UniProt P35367); assay: H1 competition binding assay ([3H]-Pyrilamine SPA); set-up: expressed in transfected cells
Experimental: [^3H]-Pyrilamine binding experiments are carried out in SPA (scintillation proximity assay) 96-well format. Membranes used in this assay are prepared from HEK-293 cells stably expressing recombinant H1 receptor (human). The incubation is initiated by the addition of a mixture of WGA PVT SPA beads (1 mg/well, Perkin Elmer (MA, USA) RPNQ0001) and 3 μg membranes to assay buffer (67 mM Tris; pH 7.6) containing 3.5 nM [^3H]-Pyrilamine and varying concentrations of the test compound (10 point concentration response curves). Non-specific binding is determined in the presence of 10 μM Triprolidine. Samples are incubated for four hours at room temperature (22° C.) and then read in a Microbeta Trilux.
Curves are evaluated using a 4-parameter logistic nonlinear equation to obtain the concentration of competitor causing 50% inhibition of radioligand binding (IC50). Equilibrium dissociation constants (Ki) are calculated according to the equation Ki=IC50/(1+L/Kd), where L equals the concentration of radioligand used in the experiment and Kd equals the equilibrium dissociation constant of the radioligand for the receptor, determined from standard saturation analysis or homologous competition experiments. Reported values for Ki, where n values are indicated, are shown as geometric mean±the standard error of the mean (SEM), with the number of replicate determinations indicated by n. […]

[9] = biological target: 5-HT1D (Homo sapiens, UniProt P28221); assay: 5-HT1D binding
Source text: as §1

[10] = biological target: Adrenergic alpha2C (Homo sapiens, UniProt P18825); assay: Adrenergic alpha2C binding
Source text: as §1

Chain of human recombinant H1 receptor (P35367 whole entry): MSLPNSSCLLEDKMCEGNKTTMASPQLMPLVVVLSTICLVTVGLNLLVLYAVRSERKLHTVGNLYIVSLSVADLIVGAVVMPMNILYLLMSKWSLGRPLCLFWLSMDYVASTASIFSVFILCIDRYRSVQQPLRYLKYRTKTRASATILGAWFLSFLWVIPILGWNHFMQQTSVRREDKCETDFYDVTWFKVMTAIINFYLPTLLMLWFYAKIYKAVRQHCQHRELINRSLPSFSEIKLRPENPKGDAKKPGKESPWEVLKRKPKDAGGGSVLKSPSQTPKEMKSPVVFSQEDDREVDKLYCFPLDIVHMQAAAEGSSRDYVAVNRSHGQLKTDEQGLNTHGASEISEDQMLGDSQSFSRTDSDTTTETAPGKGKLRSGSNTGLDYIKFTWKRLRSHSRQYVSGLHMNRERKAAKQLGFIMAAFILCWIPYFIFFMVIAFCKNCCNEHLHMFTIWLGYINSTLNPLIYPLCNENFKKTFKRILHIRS
Chain of Dopamine D2 (P14416 whole entry): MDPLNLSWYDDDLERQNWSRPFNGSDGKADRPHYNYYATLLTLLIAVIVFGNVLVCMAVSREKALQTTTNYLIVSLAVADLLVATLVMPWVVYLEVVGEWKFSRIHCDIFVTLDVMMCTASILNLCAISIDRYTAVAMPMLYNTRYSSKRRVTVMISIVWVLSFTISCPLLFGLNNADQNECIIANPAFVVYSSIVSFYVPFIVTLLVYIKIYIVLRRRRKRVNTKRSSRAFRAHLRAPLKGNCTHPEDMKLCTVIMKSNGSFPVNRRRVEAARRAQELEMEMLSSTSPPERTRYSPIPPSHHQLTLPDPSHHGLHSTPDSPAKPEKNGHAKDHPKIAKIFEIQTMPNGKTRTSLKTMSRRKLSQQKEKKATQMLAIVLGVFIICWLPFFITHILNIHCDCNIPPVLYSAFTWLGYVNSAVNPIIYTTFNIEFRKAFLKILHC
Chain of Dopamine D1 (P21728 whole entry): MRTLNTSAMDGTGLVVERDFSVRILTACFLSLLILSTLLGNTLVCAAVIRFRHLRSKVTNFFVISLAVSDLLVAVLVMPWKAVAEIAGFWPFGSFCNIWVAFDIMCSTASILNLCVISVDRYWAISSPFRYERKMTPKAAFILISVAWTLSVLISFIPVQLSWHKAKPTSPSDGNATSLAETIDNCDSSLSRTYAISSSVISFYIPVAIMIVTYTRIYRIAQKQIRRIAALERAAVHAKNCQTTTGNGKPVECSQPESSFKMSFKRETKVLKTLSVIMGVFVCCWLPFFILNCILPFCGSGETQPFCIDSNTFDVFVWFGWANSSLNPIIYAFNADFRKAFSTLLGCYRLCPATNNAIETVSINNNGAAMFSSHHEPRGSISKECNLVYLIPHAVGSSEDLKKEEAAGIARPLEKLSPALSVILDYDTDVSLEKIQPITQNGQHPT
Chain of 5-HT7 (P34969 whole entry, species assumed): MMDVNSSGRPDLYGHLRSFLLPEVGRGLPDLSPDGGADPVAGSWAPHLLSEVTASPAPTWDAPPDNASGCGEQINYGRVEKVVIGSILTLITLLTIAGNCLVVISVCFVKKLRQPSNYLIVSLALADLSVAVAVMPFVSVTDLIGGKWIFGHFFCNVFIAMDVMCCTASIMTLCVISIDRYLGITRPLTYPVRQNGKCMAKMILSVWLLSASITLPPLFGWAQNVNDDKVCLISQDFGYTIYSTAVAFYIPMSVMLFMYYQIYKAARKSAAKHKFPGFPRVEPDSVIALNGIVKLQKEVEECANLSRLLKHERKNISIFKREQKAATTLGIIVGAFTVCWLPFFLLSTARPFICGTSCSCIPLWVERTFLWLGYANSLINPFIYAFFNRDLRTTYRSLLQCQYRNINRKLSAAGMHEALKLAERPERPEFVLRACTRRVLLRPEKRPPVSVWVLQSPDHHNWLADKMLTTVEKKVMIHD
Chain of 5-HT1D (P28221 whole entry, species assumed): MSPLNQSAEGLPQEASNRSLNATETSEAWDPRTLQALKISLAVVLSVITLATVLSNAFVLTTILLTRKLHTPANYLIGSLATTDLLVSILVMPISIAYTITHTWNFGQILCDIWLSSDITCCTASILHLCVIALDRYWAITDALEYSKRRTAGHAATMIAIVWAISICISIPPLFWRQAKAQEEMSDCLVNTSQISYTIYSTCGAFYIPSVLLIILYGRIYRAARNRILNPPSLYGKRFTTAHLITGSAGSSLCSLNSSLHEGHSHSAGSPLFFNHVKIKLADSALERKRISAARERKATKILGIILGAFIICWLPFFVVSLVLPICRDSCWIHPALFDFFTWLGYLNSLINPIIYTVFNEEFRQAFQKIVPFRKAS
Chain of 5-HT1E (P28566 whole entry, species assumed): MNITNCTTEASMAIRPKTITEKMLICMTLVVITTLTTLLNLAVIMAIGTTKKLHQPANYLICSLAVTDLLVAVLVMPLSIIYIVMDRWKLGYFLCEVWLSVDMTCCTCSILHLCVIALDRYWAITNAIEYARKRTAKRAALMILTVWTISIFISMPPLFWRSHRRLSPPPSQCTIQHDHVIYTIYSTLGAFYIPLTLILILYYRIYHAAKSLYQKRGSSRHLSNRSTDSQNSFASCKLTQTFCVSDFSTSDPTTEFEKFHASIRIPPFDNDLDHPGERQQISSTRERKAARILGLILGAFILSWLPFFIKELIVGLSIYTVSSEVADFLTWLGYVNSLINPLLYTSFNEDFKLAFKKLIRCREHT
Chain of 5-HT5 (P47898 whole entry, species assumed): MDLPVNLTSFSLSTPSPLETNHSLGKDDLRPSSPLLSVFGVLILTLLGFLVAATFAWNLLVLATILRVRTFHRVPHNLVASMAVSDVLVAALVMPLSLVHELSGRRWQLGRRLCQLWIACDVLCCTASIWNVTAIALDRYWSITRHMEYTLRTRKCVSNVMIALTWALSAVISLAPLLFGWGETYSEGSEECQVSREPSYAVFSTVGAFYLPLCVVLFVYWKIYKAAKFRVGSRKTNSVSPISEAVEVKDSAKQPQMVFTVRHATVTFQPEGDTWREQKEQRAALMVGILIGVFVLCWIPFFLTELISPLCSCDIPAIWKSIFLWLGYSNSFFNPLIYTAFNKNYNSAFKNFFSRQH
Chain of Adrenergic alpha2C (P18825 whole entry): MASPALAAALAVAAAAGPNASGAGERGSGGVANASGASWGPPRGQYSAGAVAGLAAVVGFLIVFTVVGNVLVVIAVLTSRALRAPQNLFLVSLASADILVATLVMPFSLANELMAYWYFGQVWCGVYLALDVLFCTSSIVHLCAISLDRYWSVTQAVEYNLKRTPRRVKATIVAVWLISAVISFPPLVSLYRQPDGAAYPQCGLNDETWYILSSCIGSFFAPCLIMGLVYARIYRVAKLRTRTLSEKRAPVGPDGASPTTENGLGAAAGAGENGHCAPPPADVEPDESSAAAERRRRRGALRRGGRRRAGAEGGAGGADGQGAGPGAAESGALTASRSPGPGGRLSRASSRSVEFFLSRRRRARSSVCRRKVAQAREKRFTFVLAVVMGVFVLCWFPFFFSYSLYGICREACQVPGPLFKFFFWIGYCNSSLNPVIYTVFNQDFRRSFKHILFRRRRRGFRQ
Chain of Norepinephrine Transport (P23975 whole entry): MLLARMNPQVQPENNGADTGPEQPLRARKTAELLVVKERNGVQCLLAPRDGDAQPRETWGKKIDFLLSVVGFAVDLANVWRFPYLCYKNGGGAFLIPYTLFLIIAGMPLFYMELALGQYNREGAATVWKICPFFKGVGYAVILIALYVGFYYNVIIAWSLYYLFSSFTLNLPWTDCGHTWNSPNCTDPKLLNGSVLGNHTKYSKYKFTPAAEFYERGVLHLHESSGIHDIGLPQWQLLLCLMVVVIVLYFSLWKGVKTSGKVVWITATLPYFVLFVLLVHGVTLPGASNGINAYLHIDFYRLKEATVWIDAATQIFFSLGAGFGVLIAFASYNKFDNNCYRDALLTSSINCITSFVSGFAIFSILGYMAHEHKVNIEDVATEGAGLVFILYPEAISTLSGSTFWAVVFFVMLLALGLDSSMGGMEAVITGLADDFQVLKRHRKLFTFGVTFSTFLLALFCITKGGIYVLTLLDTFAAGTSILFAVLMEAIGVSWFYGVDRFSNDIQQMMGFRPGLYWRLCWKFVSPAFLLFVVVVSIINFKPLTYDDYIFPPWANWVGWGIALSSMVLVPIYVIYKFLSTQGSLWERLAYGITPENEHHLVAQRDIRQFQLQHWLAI

`Cc1cc2n(c1)Cc1cc(Cl)ccc1N=C2N1CCN(CC(C)(C)C(=O)O)CC1` [Example 13, 3-[4-(7-Chloro-2-methyl-5H-pyrrolo[2,1-c][1,4]benzodiazepin-11-yl)piperazin-1-yl]-2,2-dimethylpropanoic acid dihydrochloride] was tested, and the Ki [1] was 1.86 µM, the Ki [2] was 3.42 µM and the IC50 [3] was greater than 50 µM. The “Norepinephrine Transport” value [4] was greater than 526, the Ki [5] was greater than 9.09 µM and the Ki [6] was greater than 5.37 µM. For the same compound, the Ki [7] was greater than 3.97 µM, the Ki [8] was 0.0168 µM and the Ki [9] was greater than 8.55 µM. It also gave a Ki [10] greater than 5.33 µM.
